Results published in patent US11612605B2, “(+)-azasetron for use in the treatment of ear disorders” (SENSORION, priority 2016, dated 2023).
Read-outs that look alike come from different tables or passages of the source.

Assay: Pharmacokinetics study: exposure in inner ear, perilymph and tail plasma after single oral dose
Format: in vivo, Wistar rats
Details: for Total AUC Inner ear / Total AUC Perilymph / Total AUC Tail plasma / concentration at 15 min / concentration at 30 min / concentration at 60 min / concentration at 120 min / concentration at 240 min / concentration at 480 min: 10 mg/kg p.o. single dose; for concentration at 15 min / concentration at 30 min / concentration at 60 min / concentration at 120 min / concentration at 240 min / concentration at 480 min / AUC: male, Wistar, rat; for concentration at 15 min / concentration at 30 min / concentration at 60 min / concentration at 120 min / concentration at 240 min / concentration at 480 min: oral, read-out: Average Inner ear concentration (ng azasetron free-base/g tissue); for AUC: po, 10 mg/kg, 10 mg/kg p.o., per-interval AUC of azasetron free-base
Source text: The 72 male Wistar rats received on 28 Jan. 2016 from Janvier (Janvier, Le Genest-St-Isle) were assigned to the study. They were divided in 3 groups of 24 animals each, one group per test article. Each group was divided in […] subgroups according to the 6-termination time-points.
72 Wistar rats were subjected to oral single dose administration of the test article, racemic azasetron hydrochloride, azasetron hydrochloride (+) or azasetron hydrochloride (−), and sacrificed at different time-points to assess the exposure of the test article in the inner ear, perilymph, and plasma. • Group racemic azasetron: 24 male Wistar, 4 rats per time-point: 10 mg/kg azasetron HCl dissolved in NaCl 0.9%. Administrated as 5 mL/kg p.o.; • Group azasetron (+): 24 male Wistar, 4 rats per time-point: 10 mg/kg (+)-azasetron HCl dissolved in NaCl 0.9%. Administrated as 5 mL/kg p.o.; • Group azasetron (−): 24 male Wistar, 4 rats per time-point: 10 mg/kg (−)-azasetron HCl dissolved in NaCl 0.9%. Administrated as 5 mL/kg p.o.
There were 6 termination time-points for each test article. At time-points 15/30/60/120/240/480 minutes after administration: peripheral plasma from the tail was sampled. The animals were sacrificed by i.v. administration of 0.25 mL/rat of a 160 mg/mL pentobarbital solution. Following sacrifice, the heart blood and both tympanic bullas (left and right) were sampled.
Both tympanic bullas (left and right) were collected, however, only the left one was used for the perilymph and inner ear analysis. The right bulla was stored at −20° C. for future needs when required. For animal IDs 1 and 4, the right bulla was used for the sampling of perilymph and inner ear.
The left bulla was dissected fresh. Briefly, the bulla was opened via the auditory opening to reveal the bone surrounding the cochlea after which the tip of the bone was removed with forceps and a 10 μL pipette tip was inserted to withdraw perilymph.
Upon exposure of the tip of the cochlea, 2 μL of perilymph (fluid) could be recovered from the bulla. The perilymph was brought to 10 μL by the addition of 8 μL water, and then extract via the addition of 30 μL of acetonitrile. After that, the samples were centrifuged and the supernatant was transferred to a glass vial appropriate for the HPLC-MS auto-sampler.
Following recovering of the perilymph, the bones of the inner ear and cochlea components were removed with fine forceps and added to a tared Eppendorf tube. The collection was weighed and brought to 10 mg with the addition of water and placed on ice until extraction. 30 μL of acetonitrile was added and the tubes were incubated in an ultrasound bath, after which they were centrifuged and the supernatant was transferred to a glass vial appropriate for the HPLC-MS auto-sampler. In the process or removing the bones of the inner ear, they were finely distributed in the media and broken by forceps. (Due to the very low volume of the tissue and its fine structure, separate grinding is considered risky vs the potential losses to plastic and media. The materials are very fine in nature and the bone particles are small thus providing only short interfaces to media. The absence of fat and the incubation in solvent is intended to provide sufficient solubility of active ingredient).
The acetonitrile used in the sample preparation for bio-analysis contained the internal standard for the HPLC-MS analysis.
30 μL acetonitrile including the internal standard were added to each 10 μL plasma sample. After adding the acetonitrile, the samples were mixed by vortex and further centrifuged. The supernatant was transferred to a glass vial appropriate for the HPLC-MS auto-sampler.
The LC system comprised an Agilent 1260 liquid chromatography equipped with a binary pump and a column oven, together with a PAL HTS-xt auto-sampler. It is linked to the AB SCIEX TRIPLE QUADTM 4500 (triple-quadrupole) instrument with an ESI interface and a switching valve integrated (Mass spectrometric analysis). […]

[1] = inner ear, Time 15 (min), read-out: Inner ear AUC (converted)
[2] = inner ear, Time 30 (min), read-out: Inner ear AUC (converted)
[3] = inner ear, Time 60 (min), read-out: Inner ear AUC (converted)
[4] = inner ear, Time 120 (min), read-out: Inner ear AUC (converted)
[5] = inner ear, Time 240 (min), read-out: Inner ear AUC (converted)
[6] = inner ear, Time 480 (min), read-out: Inner ear AUC (converted)
[7] = perilymph, Time 15 (min), read-out: Perilymph AUC (converted)
[8] = perilymph, Time 30 (min), read-out: Perilymph AUC (converted)
[9] = perilymph, Time 60 (min), read-out: Perilymph AUC (converted)
[10] = perilymph, Time 120 (min), read-out: Perilymph AUC (converted)
[11] = perilymph, Time 240 (min), read-out: Perilymph AUC (converted)
[12] = perilymph, Time 480 (min), read-out: Perilymph AUC (converted)
[13] = tail plasma, Time 15 (min), read-out: Tail plasma AUC (converted)
[14] = tail plasma, Time 30 (min), read-out: Tail plasma AUC (converted)
[15] = tail plasma, Time 60 (min), read-out: Tail plasma AUC (converted)
[16] = tail plasma, Time 120 (min), read-out: Tail plasma AUC (converted)
[17] = tail plasma, Time 240 (min), read-out: Tail plasma AUC (converted)
[18] = tail plasma, Time 480 (min), read-out: Tail plasma AUC (converted)

SMILES | Total AUC Inner ear | Total AUC Perilymph | Total AUC Tail plasma | concentration at 15 min (inner ear, Time 15 (min)) | concentration at 30 min (inner ear, Time 30 (min)) | concentration at 60 min (inner ear, Time 60 (min)) | concentration at 120 min (inner ear, Time 120 (min)) | concentration at 240 min (inner ear, Time 240 (min)) | concentration at 480 min (inner ear, Time 480 (min)) | AUC [1] | AUC [2] | AUC [3] | AUC [4] | AUC [5] | AUC [6] | AUC [7] | AUC [8] | AUC [9] | AUC [10] | AUC [11] | other results
CN1C(=O)COc2c(C(=O)N[C@H]3CN4CCC3CC4)cc(Cl)cc21 [(+)-azasetron] | 69036 nM·min | 40910 nM·min | 210768 nM·min | 57 ng/g | 86 ng/g | 93 ng/g | 79 ng/g | 52 ng/g | 6 ng/g | 0.0204 µM·h | 0.051 µM·h | 0.127 µM·h | 0.246 µM·h | 0.375 µM·h | 0.331 µM·h | 0.0194 µM·h | 0.0297 µM·h | 0.0517 µM·h | 0.129 µM·h | 0.227 µM·h | AUC [12]: 0.225 µM·h; AUC [13]: 0.0983 µM·h; AUC [14]: 0.192 µM·h; AUC [15]: 0.35 µM·h; AUC [16]: 0.622 µM·h; AUC [17]: 1.11 µM·h; AUC [18]: 1.14 µM·h; exposure (total AUC) to azasetron in the perilymph, inner ear, and plasma versus racemic azasetron or (−)-azasetron (single equivalent oral dose (10 mg/kg)): greater exposure (total AUC)
CN1C(=O)COc2c(C(=O)NC3CN4CCC3CC4)cc(Cl)cc21 (racemic) [Racemic azasetron, N-(1-azabicyclo[2.2.2]octan-8-yl)-6-chloro-4-methyl-3-oxo-1,4-benzoxazine-8-carboxamide] | 43592 nM·min | 25873 nM·min | 177194 nM·min | 25 ng/g | 61 ng/g | 63 ng/g | 35 ng/g | 37 ng/g | 7 ng/g | 0.0119 µM·h | 0.0336 µM·h | 0.0887 µM·h | 0.14 µM·h | 0.204 µM·h | 0.248 µM·h | 0.0183 µM·h | 0.0328 µM·h | 0.0455 µM·h | 0.0635 µM·h | 0.117 µM·h | AUC [12]: 0.154 µM·h; AUC [13]: 0.168 µM·h; AUC [14]: 0.263 µM·h; AUC [15]: 0.309 µM·h; AUC [16]: 0.374 µM·h; AUC [17]: 0.758 µM·h; AUC [18]: 1.08 µM·h
